# How the values were obtained:
# [1] = system: BEL-7402 liver cancer cells; experiment: Cell proliferation by MTT method, BEL-7402; format: cell-based; conditions: BEL-7402, 10, 25, 50, 100 nM, 24 h, FIG. 9
# Description: (§1) 2.2 Detection of Cell Proliferation by MMT Method
# (§2) When the liver cancer cells grew to the logarithmic phase, the single cell suspension was inoculated in a 96-well plate at 1×10^4 cells per well. A blank group was a DMEM medium containing 10% fetal bovine serum, a control group was a solvent-added control (DMSO) cell group, and an experimental group was a cell group treated with drugs with different final concentrations (10, 25, 50, 100 nM). After 24 h of treatment, the medium supernatant was carefully aspirated, and 100 μL of MTT solution with a final concentration of […] diluted with the medium was added to each well. After the cells were cultured for 4 h, the medium was discarded, 150 μL of DMSO solution was added to each well, and shaking was performed at a low speed on the shaker for 10 min in the dark. After the crystals were fully dissolved, the absorbance (A) of each well was detected at 490 nm with the microplate reader. Cell proliferation inhibition rate=[(control group A450-blank group A450)−(experimental group A450−blank group A450)/(control group A450−blank group A450)]×100%.
# caspase-3 [2] = experiment: Western blot of tumor tissue, caspase-3; format: in vivo, nude mice; conditions: FIG. 7
# Description: (§3) After the tumor tissue was thawed on ice, 50 mg of tumor tissue was taken into a tissue homogenization tube, and 500 μL of tissue lysate containing protease inhibitors and phosphatase inhibitors was added (usage of Roche brand tablets: 1 tablet/10 mL). After high-speed homogenization, centrifugation was performed at 12,000 rpm/min for 15 min, the supernatant was taken, and the protein concentration of the sample was measured by a BCA method. After the concentration of each sample was adjusted to the same, a protein loading buffer (5× Loading buffer) was added, denaturation was performed at 100° C. for 10 min, and preservation was performed at −80° C.
# (§4) An appropriate brand of 10% pre-mixed polyacrylamide gel preparation solution was selected, and then, the gel (including separating gel and stacking gel) used in the experiment was prepared according to the instructions for use, which takes about 2 h. In the process of waiting for gel solidification, an SDS-PAGE gel electrophoresis solution was prepared in advance, the prepared gel was put in an electrophoresis tank, then the electrophoresis solution was added, and 10-30 μL of sample was added to each well of loading slot. After the sample runs through the stacking gel at a low pressure of 80 V, the voltage was adjusted to 100 V to make the sample run through the entire block of gel, so as to complete the SDS-PAGE gel electrophoresis operation. Secondly, a membrane transfer operation was performed (a PVDF membrane was pre-wetted in methanol for 5 min in advance), and membrane transfer conditions were: 300 mA, 120-150 min (corresponding to the time selection of the dividing line with a molecular weight of 100 kDa, wherein the selected membrane transfer time of the separated protein with a molecular weight less than 100 kDa was 120 min, and the selected membrane transfer time of the separated protein with a molecular weight greater than 100 kDa was 150 min). […] An ECL luminescent solution was used as a substrate to expose the target band, and the results were analyzed, recorded and counted.
# p53 = experiment: Western blot of tumor tissue, p53; format: in vivo, nude mice; conditions: FIG. 7
# Description: as §3, §4
# LO2 cells = experiment: Cell toxicity experiment (LDH activity of culture supernatant); format: cell-based; conditions: normal liver cells, 0, 10, 50 and 100 nM, 24 h; FIG. 8
# Description: 2.1 Cell Toxicity Experiment
# Logarithmically growing LO2 cells were taken and inoculated in a 96-well plate at 1×10^4 cells per well. The cells treated with drugs with final concentrations of 0, 10, 50 and 100 nM were used respectively, the culture supernatant was collected after 24 h, and the LDH activity of the culture supernatant was detected by the Roche biochemical analyzer.
# HepG2 liver cancer cells = experiment: Cell proliferation by MTT method, HepG2; format: cell-based; conditions: HepG2, 10, 25, 50, 100 nM, 24 h, FIG. 9
# Description: as §1, §2
# [3] = system: SMMC-7721 liver cancer cells; experiment: Cell proliferation by MTT method, SMMC-7721; format: cell-based; conditions: SMMC-7721, 10, 25, 50, 100 nM, 24 h, FIG. 9
# Description: as §1, §2
# caspase-8 = experiment: Western blot of tumor tissue, caspase-8; format: in vivo, nude mice; conditions: FIG. 7
# Description: as §3, §4
# PARP = experiment: Apoptosis-related proteins by western blot, PARP in BEL-7402 cells; format: cell-based; conditions: BEL-7402 cells, 0, 50 and 100 nM, 24 h, FIG. 10 B
# Description: (§5) 2.4 Detection of Apoptosis-Related Proteins by Western Blot
# (§6) BEL-7402 cells in the logarithmic growth phase were taken and inoculated in a 12-well plate at 5×10^5 cells per well. The cells treated with TPO with final concentrations of 0, 50 and 100 nM were used. After 24 h of treatment, the cells were collected, then lysate was added, and total proteins were extracted after sufficient lysis on ice. After the protein concentration was measured by a BCA method, the Loading buffer was added and boiled at 100° C. for 10 min to fully denature the proteins. The denatured sample was subjected to SDS-PAGE gel electrophoresis and electrically transferred to a PVDF membrane. The transferred PVDF membrane was sealed with a 5% BSA solution in TBST at a room temperature for 1 h, then incubated overnight with the corresponding primary antibody at 4° C., washed with TBST, incubated with the secondary antibody at a room temperature for 2 h, and washed with TBST again.
# (§7) Finally, an ECL chemiluminescent solution was added to make the membrane strip emit light, electrophoresis results were obtained by pressing, developing and fixing with photosensitive films, and the change trends of apoptosis-related proteins among different treatment groups were observed.
# Hep3B liver cancer cells [4] = experiment: Cell proliferation by MTT method, Hep3B; format: cell-based; conditions: Hep3B, 10, 25, 50, 100 nM, 24 h, FIG. 9
# Description: as §1, §2
# Hep3B liver cancer cells [5] = experiment: Cell apoptosis by flow cytometry, Hep3B; format: cell-based; conditions: Hep3B, 0, 50 and 100 nM, 24 h, FIG. 10 A
# Description: (§8) 2.3 Detection of Cell Apoptosis by Flow Cytometry
# (§9) Liver cancer cells in the logarithmic growth phase were taken and inoculated in a 12-well plate at 5×10^5 cells per well. The cells treated with triptolide acrylate (hereinafter referred to as TPO) and triptolide triol (hereinafter referred to as TP-3-OH) with final concentrations of 0, 50 and 100 nM were used. After 24 h of treatment, the cells were digested and collected with 0.25% EDTA-free pancreatin, washed twice with pre-cooled PBS, and resuspended with 300 μL 1× Binding Buffer. 5 μL FITC Annexin V and 5 μL PI were added to each tube of cell suspension and incubated at a room temperature for 5 min in the dark, and the flow cytometry was used for detection within 1 h.
# Caspase-3 [6] = experiment: Apoptosis-related proteins by western blot, Caspase-3 in BEL-7402 cells; format: cell-based; conditions: BEL-7402 cells, 0, 50 and 100 nM, 24 h, FIG. 10 B
# Description: as §5, §6, §7
# Huh7 cells = experiment: Scratch test; format: cell-based; conditions: 50 nM, 24 and 48 h, serum-free medium; P<0.05; FIG. 11
# Description: Huh7 cells in the logarithmic growth phase were taken and inoculated in a 24-well plate at 5×10^5 cells per well. After the cells were overgrown, a sterile pipette tip was used for scratching, the cells were washed 3 times with PBS after scratching, the scratched cells were removed, a serum-free medium containing 50 nM TPO was added to continue the culture for 24 and 48 h, and photographing was performed. The scratch photo was analyzed by Image J software, the scratch distance was calculated, and the scratch healing was evaluated.
# [7] = system: BEL-7402 liver cancer cells; experiment: Cell apoptosis by flow cytometry, BEL-7402; format: cell-based; conditions: BEL-7402, 0, 50 and 100 nM, 24 h, FIG. 10 A
# Description: as §8, §9
# [8] = system: HepG2 subcutaneous implanted tumor (HepG2-Luc); experiment: Inhibition experiment on HepG2 subcutaneous implanted tumor in nude mice; format: in vivo
# Description: 2.1 Establishment of Animal Models
# Establishment of HepG2-Luc cell line stably expressing luciferase: HepG2 cells in the logarithmic growth phase were taken and placed into a 24-well plate at 1×10^5/well, and cultured overnight to make the cells fully adherent. An original medium was replaced with 2 mL of fresh medium containing 6 μg/mL polybrene, about 1×10^5 transfection units of recombinant lentiviral particles stably expressing luciferase were added, and after incubation was performed for 4 h at 37° C., 2 mL of fresh medium was added to dilute the polybrene. The culture was continued, and a virus-containing medium was replaced with a fresh medium. The culture was continued, a medium containing puromycin was replaced for resistance screening, drug-resistant clones were picked and screened for two weeks, and finally, a cell line HepG2-Luc stably expressing luciferase was obtained.
# Construction of bear mice by HepG2-Luc cell line: the cryopreserved HepG2-Luc cells were recovered to a 100 cm^2 culture flask, cultured in vitro to the logarithmic growth phase and digested with 0.25% trypsin containing EDTA, the cells were collected and centrifuged at 1000 rpm for 3 min at a room temperature, the supernatant was discarded, the cells were washed with a serum-free DMEM medium, and the cell viability was detected by a trypan blue exclusion assay (only if the proportion of viable cells exceeded 95%, the experimental requirements were met). A small amount of the serum-free DMEM medium was added to resuspend the cells, and the cells were counted. […]
# Detection of tumor growth by animal in-vivo imaging system: each nude mouse was intraperitoneally injected with 150 μL of 30 mg/kg […] substrate and observed for 15 min, the nude mouse was anesthetized with diethyl ether in an induction box for 5 min, the anesthetized nude mouse was quickly transferred into an observation box, the head of the nude mouse was aligned and fixed in a conical nasal plug, parameters were set for fluorescence imaging (if there was tumor growth, fluorescence signals with different intensities can be detected at the corresponding positions), after the imaging, the nude mouse was transferred into the induction box again, and an oxygen valve was turned on to revive the nude mouse.
# 18 random numbers were generated by Excel software, the random numbers were corresponding to the numbers of the nude mice, and the nude mice were equally divided into model groups according to the size of the random numbers, namely a low-dose group (100 μg/kg), a middle-dose group (200 μg/kg) and a high-dose group (400 μg/kg). After random grouping, the nude mice were weighed and the tumor volume was measured. […]
molecule,measurement,setting,value
C=CC(=O)O[C@@H]1[C@@]2(C(C)C)O[C@H]2[C@@H]2O[C@]23[C@]12O[C@H]2C[C@H]1C2=C(CC[C@@]13C)C(=O)OC2 [triptolide acrylate],inhibiting effect on proliferation,[1],significant inhibiting effect
same,protein expression quantity of caspase-3,caspase-3 [2]; high-dose group (400 μg/kg),significantly increase
same,protein expression quantity of caspase-3,caspase-3 [2]; low-dose group (100 μg/kg),reduce
same,protein expression quantity of caspase-3,caspase-3 [2]; middle-dose group (200 μg/kg),significantly increase
same,protein expression quantity of p53,p53; high-dose group (400 μg/kg),significantly increase
same,protein expression quantity of p53,p53; low-dose group (100 μg/kg),no significant change
same,protein expression quantity of p53,p53; middle-dose group (200 μg/kg),no significant change
same,LDH activity of the culture supernatant of LO2 cells,LO2 cells,significantly lower than that of the TPL treatment group
same,inhibiting effect on proliferation,HepG2 liver cancer cells,significant inhibiting effect
same,inhibiting effect on proliferation,[3],significant inhibiting effect
same,protein expression quantity of caspase-8,caspase-8; high-dose group (400 μg/kg),reduce
same,protein expression quantity of caspase-8,caspase-8; low-dose group (100 μg/kg),reduce
same,protein expression quantity of caspase-8,caspase-8; middle-dose group (200 μg/kg),significantly increase
same,cleavage of PARP,PARP,significantly increased
same,inhibiting effect on proliferation,Hep3B liver cancer cells [4],significant inhibiting effect
same,proportion of Annexin V and PI positive cells (induction of apoptosis),Hep3B liver cancer cells [5],significantly increased
same,cleavage of Caspase-3,Caspase-3 [6],significantly increased
same,migration of Huh7 cells (scratch healing),Huh7 cells,significantly inhibit
same,proportion of Annexin V and PI positive cells (induction of apoptosis),[7],significantly increased
same,tumor volume (subcutaneous implanted tumor seen on skin surface),"[8]; administration group (especially the high-dose group) vs model group, dose-dependent, FIG. 5",significantly less than that of the model group
same,tumor volume of tumor tissues stripped after sacrifice,"[8]; administration group vs model group, FIG. 6",less than that of the model group
same,fluorescence signals in the tumors of the nude mice,"[8]; each dose group (100, 200, 400 μg/kg), intraperitoneal injection once a day for 13 days, compared with the model group, dose-dependent, FIG. 4",significantly weakened
same,fluorescence signal in the tumors of the nude mice,"[8]; high-dose group (400 μg/kg), intraperitoneal injection once a day for 13 days, FIG. 4",weakened more obviously
"triptolide triol [TP-3-OH, reference compound]",inhibiting effect on proliferation,[1],no obvious inhibiting effect
same,LDH activity of the culture supernatant of LO2 cells,LO2 cells,significantly lower than that of the TPL treatment group
same,inhibiting effect on proliferation,HepG2 liver cancer cells,no obvious inhibiting effect
same,inhibiting effect on proliferation,[3],no obvious inhibiting effect
same,inhibiting effect on proliferation,Hep3B liver cancer cells [4],no obvious inhibiting effect
same,proportion of Annexin V and PI positive cells (induction of apoptosis),Hep3B liver cancer cells [5],not obvious
same,proportion of Annexin V and PI positive cells (induction of apoptosis),[7],not obvious

# From patent US11660285B2, “Triptolide acrylate, preparation method therefor and use thereof” (GUANGDONG PROVINCIAL HOSPITAL OF TCM, priority 2019, dated 2023)
